# Measurements: patent publication US5567707A, “Acronycine analogues” (Adir et Compagnie, priority 1994, dated 1996)
# Like-named read-outs stand apart in the source and are kept apart here.
# Tests used:
# murine leukaemia L1210 = experiment: Cytotoxicity for L1210 cells in culture (Microculture Tetrazolium Assay); assay type: cell-based; details: Mus musculus, four doubling periods (48 hours)
# Procedure: A cell line, murine leukaemia L1210, was used. The cells are cultivated in a complete culture medium RPMI 1640, containing 10% foetal calf serum, 2 mM glutamine, 50 units/ml penicillin, […] streptomycin and 10 mM Hepes, pH: 7.4. The cells are distributed on microplates and exposed to the cytotoxic compounds for four doubling periods, that is 48 hours. The number of viable cells is then quantified by a colorimetric assay, the Microculture Tetrazolium Assay (J. Carmichael et al., Cancer Res., 47, 936-942, (1987)). The results are expressed as IC50, the concentration of cytotoxic agent that inhibits the proliferation of treated cells by 50%.
# P388 (murine leukaemia) = experiment: Anti-tumour activity in vivo against line P388; design: species or system murine; B6D2F1 mice
# Text: (§1) In this Example, the compounds were suspended in Tween 80, then diluted with water. The concentration of Tween is at a maximum of 1% at the strongest doses. The control animals received the carrier only.
# Line P388 (murine leukaemia) was supplied by the National Cancer Institute (Frederick, U.S.A.). The tumour cells (10^6 cells) were inoculated on day 0 into the peritoneal cavity of female B6D2F1 mice (Iffa-Credo, France). Eight to ten mice, of a weight ranging from 18 to 20 g, were used for each experimental group. The compounds were administered via the intraperitoneal route on day 1 or once a day for 4 days (D1-4), and by the intravenous route on day 1.
# The anti-tumour activity is expressed as a T/C %: [formula]
# Table 2 indicates the anti-tumour activity achieved at the optimum doses for each scheme and administration route.
# colon 38 = experiment: Anti-tumour activity in vivo against colon 38; design: species or system B6D2F1 mice; details: for median T/C % (tumour volume on D21): D2,9, i.p.
# Procedure: as §1
# Colon 38 (supplied by NCI, Frederick, U.S.A.) was inserted in the form of fragments by the subcutaneous route (s.c.) into female B6D2F1 mice. The compounds were administered by the i.p. route on D2 and D9 and the anti-tumour activity was determined on D21 by measuring the rumour volume (T/C volume, %). [formula]
# [1] = tested on: HT-29 tumour cells (human colon adenocarcinoma); experiment: HT-29 xenograft in hairless mice; assay type: in vivo, human tumour in hairless mice
# Text: as §1
# HT-29 tumour cells originating from a human colon adenocarcinoma (American Type Culture Collection, U.S.A.) are inoculated by the subcutaneous route into hairless female mice (Iffa Credo, France). The tumour is then amplified by successive passages of tumour fragments of 2-3 mm^3 implanted bilaterally by the subcutaneous route in the animals' flanks. […] The animals are weighed and their tumour is measured twice a week.
# The tumour volume is calculated in accordance with the following formula: [formula]
# The results are expressed as the median relative tumour volume: [formula]
# The anti-tumour activity of the compound administered is evaluated by the minimum value of the median T/C calculated at time t: [formula]
# The minimum value of this parameter is evaluated a minimum of 7 days after the last treatment in accordance with EORTC (European Organization for the […]) standards.
# (§2) The animals are treated by the i.p. route by weekly administration for 2 weeks of the compound of Example 1. D0 corresponds to the first time the tumours are measured and the first administration of compound.
# [2] = Body weight change of hairless mice bearing HT-29 xenograft; assay type: in vivo; details: 6.25 mg/kg, D0,7, i.p.
# Text: HT-29 tumour cells originating from a human colon adenocarcinoma (American Type Culture Collection, U.S.A.) are inoculated by the subcutaneous route into hairless female mice (Iffa Credo, France). The tumour is then amplified by successive passages of tumour fragments of 2-3 mm^3 implanted bilaterally by the subcutaneous route in the animals' flanks. When the tumour has reached a size of 50 mm^3 (that is between 7 and 10 days after the graft), the animals are randomised into groups of 7 to 10 mice and treated in accordance with the protocol indicated. The animals are weighed and their tumour is measured twice a week.
# as §2
# Solubility = assay type: physicochemical; details: prevents i.v. testing
# [3] = background statement; prevented i.v. administration; cited from earlier work
# [4] = J. H. Scarffe et al.; cited from earlier work
# [5] = cited from earlier work
# experimental models = details: especially against solid tumours, G. H. Svoboda et al.; cited from earlier work
structure (smiles),measurement,setting,value
"COc1cc2c(c3c1c(=O)c1ccccc1n3C)[C@@H](OC(C)=O)[C@@H](OC(C)=O)C(C)(C)O2 (relative stereo) [Example 1, (±)-cis-1,2-diacetoxy-1,2-dihydro-acronycine]",IC50,murine leukaemia L1210,4.9 µM
same,T/C % (survival),"P388 (murine leukaemia); D1, i.p., optimum dose 25 mg/kg",289%
same,T/C % (survival),"P388 (murine leukaemia); D1, i.v., optimum dose 25 mg/kg",220%
same,T/C % (survival),"P388 (murine leukaemia); D1-4, i.p., optimum dose 12.5 mg/kg",172%
same,activity against P388 (in words),P388 (murine leukaemia); i.p. and i.v. routes,extremely active
same,activity against colon 38 compared with 5-fluoro-uracil (in words),colon 38; 25 mg/kg versus 5-fluoro-uracil at 80 mg/kg,as active at 25 mg/kg as 5-fluoro-uracil
same,median T/C % (tumour volume on D21),colon 38; 6.25 mg/kg,12%
same,median T/C % (tumour volume on D21),colon 38; 12.5 mg/kg,8%
same,median T/C % (tumour volume on D21),colon 38; 25 mg/kg,1%
same,activity against colon 38 (in words),colon 38; i.p.,very active
same,Minimum median T/C % (day),"[1]; 6.25 mg/kg, D0,7, i.p., minimum at D32",46%
same,activity against HT-29 (in words),"[1]; i.p., weekly for 2 weeks",active against that very resistant tumour
same,Δ weight (D10-D0),[2],-1.1 g
"COc1cc2c(c3c1c(=O)c1ccccc1n3C)[C@H](OC(=O)c1ccccc1)[C@@H](OC(=O)c1ccccc1)C(C)(C)O2 (relative stereo) [Example 3, (±)-trans-1,2-dibenzoyloxy-1,2-dihydro-acronycine]",IC50,murine leukaemia L1210,3.4 µM
"COc1cc2c(c3c1c(=O)c1ccccc1n3C)[C@@H](O)[C@@H](OC(=O)c1ccccc1)C(C)(C)O2 (relative stereo) [Example 5, (±)-cis-2-benzoyloxy-1-hydroxy-1,2-dihydro-acronycine]",IC50,murine leukaemia L1210,7.1 µM
same,T/C % (survival),"P388 (murine leukaemia); D1, i.p., optimum dose 12.5 mg/kg",258%
"COc1cc2c(c3c1c(=O)c1ccccc1n3C)[C@@H](OC(C)=O)[C@@H](OC(=O)c1ccccc1)C(C)(C)O2 (relative stereo) [Example 6, (±)-cis-1-acetoxy-2-benzoyloxy-1,2-dihydro-acronycine]",IC50,murine leukaemia L1210,5 µM
"COc1cc2c(c3c1c(=O)c1ccccc1n3C)[C@H]1OC(=O)O[C@H]1C(C)(C)O2 (relative stereo) [Example 7, (±)-cis-1,2-carbonyldioxy-1,2-dihydro-acronycine]",IC50,murine leukaemia L1210,0.2 µM
same,T/C % (survival),"P388 (murine leukaemia); D1, i.p., optimum dose 50 mg/kg",269%
"O=c1[nH]cc(F)c(=O)[nH]1 [5-fluoro-uracil, reference compound]",median T/C % (tumour volume on D21),colon 38; 80 mg/kg,0%
COc1cc2c(c3c1c(=O)c1ccccc1n3C)C=CC(C)(C)O2 [acronycine],IC50,murine leukaemia L1210,27 µM
same,T/C % (survival),"P388 (murine leukaemia); D1, i.p., optimum dose 200 mg/kg",125%
same,T/C % (survival),"P388 (murine leukaemia); D1-4, i.p., optimum dose 100 mg/kg",136%
same,activity against P388 (in words),"P388 (murine leukaemia); i.p. route, at far stronger doses",weak activity
same,median T/C % (tumour volume on D21),colon 38; 100 mg/kg,77%
same,median T/C % (tumour volume on D21),colon 38; 200 mg/kg,61%
same,solubility (in words),Solubility,completely insoluble
same,solubility (in words),[3],insolubility
same,clinical response,[4],little response
same,oral bioavailability (in words),[5],poor bioavailability
same,anti-tumour spectrum (in words),experimental models,broad spectrum of activity
